The source of these data is US9150566B2, “2-(1,2,3-triazol-2-yl)benzamide and 3-(1,2,3-triazol-2-YL)picolinamide derivatives as orexin receptor antagonists” (ACTELION PHARMACEUTICALS LTD., priority 2011, dated 2015).

One data set concerns the target CYP3A4 (Homo sapiens (Human), UniProt P08684). Nature of the data set: CYP3A4 inhibition assay (human liver microsomes, testosterone 6β-hydroxylation). Particulars: read-out: CYP3A4 IC50, 40 μM testosterone.
The target in another data set is human orexin-2 receptor (Homo sapiens (Human), UniProt O43614). As to the kind of experiment: In vitro intracellular calcium measurements (FLIPR), antagonistic activity on orexin-2 receptor. The class given is cell-based. Particulars: read-out: IC50 OX2. The procedure:
(§1) In Vitro Assay: Intracellular Calcium Measurements:
(§2) Chinese hamster ovary (CHO) cells expressing the human orexin-1 receptor and the human orexin-2 receptor, respectively, are grown in culture medium (Ham F-12 with L-Glutamine) containing 300 μg/mL G418, 100 U/mL penicillin, 100 μg/mL streptomycin and 10% heat inactivated fetal calf serum (FCS). The cells are seeded at 20′000 cells/well into 384-well black clear bottom sterile plates (Greiner). The seeded plates are incubated overnight at 37° C. in 5% CO2.
(§3) Within the Fluorescent Imaging Plate Reader (FLIPR Tetra, Molecular Devices), antagonists are added to the plate in a volume of 10 μL/well, incubated for 120 min and finally 10 μL/well of agonist is added. Fluorescence is measured for each well at 1 second intervals, and the height of each fluorescence peak is compared to the height of the fluorescence peak induced by 3 nM orexin-A with vehicle in place of antagonist. […] Optimized conditions were achieved by adjustment of pipetting speed and cell splitting regime. The calculated IC50 values may fluctuate depending on the daily cellular assay performance. Fluctuations of this kind are known to those skilled in the art.

A further data set concerns the target human orexin-1 receptor (Homo sapiens (Human), UniProt O43613). Nature of the data set: In vitro intracellular calcium measurements (FLIPR), antagonistic activity on orexin-1 receptor. The class given is cell-based. Particulars: read-out: IC50 OX1. Here is the method:
as §1, §2, §3

Where [1] appears, read: CHO cells expressing human orexin-2 receptor, FLIPR, 3 nM orexin-A agonist, 120 min antagonist incubation, geometric mean if determined several times.
Setting [2] is: CHO cells expressing human orexin-1 receptor, FLIPR, 3 nM orexin-A agonist, 120 min antagonist incubation, geometric mean if determined several times.

Like-named read-outs stand apart in the source and are kept apart here. Where only a bound is given, the exact number is not on record here.

Chain of CYP3A4 (P08684 whole entry): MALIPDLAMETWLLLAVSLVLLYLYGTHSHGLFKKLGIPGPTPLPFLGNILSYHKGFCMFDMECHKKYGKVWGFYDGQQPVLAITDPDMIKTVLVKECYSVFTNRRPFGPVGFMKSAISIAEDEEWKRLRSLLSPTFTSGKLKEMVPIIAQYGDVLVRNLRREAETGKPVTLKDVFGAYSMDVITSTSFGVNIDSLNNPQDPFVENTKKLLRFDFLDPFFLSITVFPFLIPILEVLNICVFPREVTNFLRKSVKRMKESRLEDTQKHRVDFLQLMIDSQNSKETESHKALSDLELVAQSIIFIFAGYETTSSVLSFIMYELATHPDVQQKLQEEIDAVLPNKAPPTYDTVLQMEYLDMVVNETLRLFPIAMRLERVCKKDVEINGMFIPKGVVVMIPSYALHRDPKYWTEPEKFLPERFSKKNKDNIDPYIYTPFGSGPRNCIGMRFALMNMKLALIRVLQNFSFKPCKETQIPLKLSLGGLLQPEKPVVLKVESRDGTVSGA
Chain of human orexin-1 receptor (O43613 whole entry): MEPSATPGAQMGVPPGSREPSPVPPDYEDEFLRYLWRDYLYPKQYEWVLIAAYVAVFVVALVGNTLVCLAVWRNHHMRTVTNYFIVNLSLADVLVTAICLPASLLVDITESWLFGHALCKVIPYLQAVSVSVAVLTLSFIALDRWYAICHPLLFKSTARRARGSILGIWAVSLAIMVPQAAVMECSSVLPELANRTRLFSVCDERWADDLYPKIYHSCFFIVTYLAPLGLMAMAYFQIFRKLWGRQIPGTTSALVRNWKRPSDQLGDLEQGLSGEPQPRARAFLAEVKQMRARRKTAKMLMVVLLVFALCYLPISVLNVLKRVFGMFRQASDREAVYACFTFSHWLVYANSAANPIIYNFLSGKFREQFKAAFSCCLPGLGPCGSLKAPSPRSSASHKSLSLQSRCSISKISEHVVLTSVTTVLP
Chain of human orexin-2 receptor (O43614 whole entry): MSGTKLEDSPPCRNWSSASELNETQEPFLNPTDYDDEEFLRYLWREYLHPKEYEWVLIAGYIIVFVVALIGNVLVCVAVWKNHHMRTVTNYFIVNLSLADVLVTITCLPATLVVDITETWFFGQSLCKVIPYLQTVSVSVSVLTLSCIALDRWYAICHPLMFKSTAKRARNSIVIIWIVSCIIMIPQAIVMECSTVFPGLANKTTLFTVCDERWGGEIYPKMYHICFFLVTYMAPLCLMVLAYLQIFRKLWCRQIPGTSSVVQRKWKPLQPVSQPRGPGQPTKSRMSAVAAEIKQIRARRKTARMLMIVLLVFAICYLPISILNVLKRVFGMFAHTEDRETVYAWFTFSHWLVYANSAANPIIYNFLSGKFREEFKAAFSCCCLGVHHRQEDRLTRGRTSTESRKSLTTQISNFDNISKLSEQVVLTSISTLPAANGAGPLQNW
Procedure for CYP3A4: The CYP3A4 inhibition assay was performed using human liver microsomes and testosterone 6β-hydroxylation as a P450 isoform-specific marker. In a total volume of 150 μL, ^14C-testosterone at a final concentration of 40 μM in a 100 mM phosphate buffer (pH 7.4) was incubated in a 96-well plate with 0.3 mg/mL of human liver microsomes in an Eppendorf thermomixer at 37° C. and 400 rpm. […] The reaction was initiated by addition of 15 μL of the NADPH-regenerating system containing the glucose-6-phosphate dehydrogenase and terminated after 7 min with a 75 μL-aliquot of methanol. After centrifugation at 465 g and 4° C. for 20 min, a 50 μL-aliquot of the supernatant was submitted to HPLC according to the method described below. The total concentration of DMSO in the assay including controls without inhibitor was 1%.
Nicardipine was run in parallel as a reference inhibitor of CYP3A4 activity at final concentrations of 0, 0.1, 0.5, 1.0, 5.0, 10, 25, and 50 μM. Stock solutions thereof were prepared in DMSO.
The chromatographic separation of testosterone and 6β-hydroxytestosterone was achieved on a Phenomenex Luna C18(2) column (5 μm, 2.0×10 mm) at RT with a flow rate of 0.6 mL/min. Mobile phases consisted of 1% aqueous formic acid (phase A) and methanol (phase B) using a gradient method with 0.9 min total run time.
The quantification of 6β-hydroxytestosterone was carried out using a quadrupole mass spectrometer equipped with an ionspray interface operating in positive ion mode. The parameters of the mass detector were set as follows: capillary voltage 5 kV, auxiliary gas 40 psi, collision gas 3 mTorr, and transfer capillary temperature 420° C.

As to `C[C@@H]1CN(C(=O)c2cc(Cl)ccc2-n2nccn2)[C@H](Cc2cccc(-c3ncccn3)c2)CO1` [Example 113, (5-Chloro-2-[1,2,3]triazol-2-yl-phenyl)-[(2R,5R)-2-methyl-5-(3-pyrimidin-2-yl-benzyl)-morpholin-4-yl]-methanone], the values for the concentration for half-maximal inhibition (IC50) at CYP3A4, at human orexin-2 receptor (setting [1]) and on human orexin-1 receptor (setting [2]) were 26000 nM, 110 nM and 2 nM, respectively.
For `O=C(c1ccccc1-n1nccn1)N1CCOC[C@H]1Cc1cc(-n2nccn2)ccc1Cl` [Example 126, [(R)-3-(2-Chloro-5-[1,2,3]triazol-2-yl-benzyl)-morpholin-4-yl]-(2-[1,2,3]triazol-2-yl-phenyl)-methanone], in that order: 17000 nM, 1480 nM and 40 nM.
As for `Cc1cccc(C(=O)N2CCOC[C@H]2Cc2cc(-n3nccn3)ccc2F)c1-n1nccn1` [Example 127, [(R)-3-(2-Fluoro-5-[1,2,3]triazol-2-yl-benzyl)-morpholin-4-yl]-(3-methyl-2-[1,2,3]triazol-2-yl-phenyl)-methanone], the figures for the IC50 on CYP3A4, at human orexin-2 receptor (setting [1]) and on human orexin-1 receptor (setting [2]) were 30000 nM, 1500 nM and 26 nM, respectively.
Consider `CC[C@@H]1CN(C(=O)c2ccccc2-n2nccn2)[C@H](Cc2cccc(-n3nccn3)c2)CO1` [Example 143, [(2R,5R)-2-Ethyl-5-(3-[1,2,3]triazol-2-yl-benzyl)-morpholin-4-yl]-(2-[1,2,3]triazol-2-yl-phenyl)-methanone], for which the half-maximal inhibitory concentration (IC50) on CYP3A4 worked out at 9100 nM; on human orexin-2 receptor (setting [1]), 485 nM; at human orexin-1 receptor (setting [2]), 19 nM.
Consider `O=C(c1cc(F)ccc1-n1nccn1)N1CCOC[C@H]1Cc1cccc(-n2nccn2)c1` [Example 26, (5-Fluoro-2-[1,2,3]triazol-2-yl-phenyl)-[(R)-3-(3-[1,2,3]triazol-2-yl-benzyl)-morpholin-4-yl]-methanone], for which the 50% inhibitory concentration (IC50) at CYP3A4 was found to be 24000 nM; at human orexin-2 receptor (setting [1]) it was 822 nM; at human orexin-1 receptor (setting [2]) it was 21 nM.
Consider `Cc1ccc(-n2nccn2)c(C(=O)N2CCOC[C@H]2Cc2cccc(-n3cccn3)c2)n1` [Example 53, (6-Methyl-3-[1,2,3]triazol-2-yl-pyridin-2-yl)-[(R)-3-(3-pyrazol-1-yl-benzyl)-morpholin-4-yl]-methanone], for which the half-inhibitory concentration (IC50) was greater than 50000 nM on CYP3A4, 3400 nM at human orexin-2 receptor (setting [1]) and 27 nM on human orexin-1 receptor (setting [2]).
Regarding `Cc1ccc(C(=O)N2[C@H](Cc3cccc(-n4nccn4)c3)COC[C@@H]2C)c(-n2nccn2)c1` [Example 71, [(3S,5R)-3-Methyl-5-(3-[1,2,3]triazol-2-yl-benzyl)-morpholin-4-yl]-(4-methyl-2-[1,2,3]triazol-2-yl-phenyl)-methanone], the IC50 stood at 14000 nM at CYP3A4, 2190 nM at human orexin-2 receptor and 35 nM on human orexin-1 receptor.
With `Cc1ccc(C(=O)N2CCOC[C@H]2Cc2cc(-n3cccn3)ccc2C)c(-n2nccn2)c1` [Example 189, [(R)-3-(2-Methyl-5-pyrazol-1-yl-benzyl)-morpholin-4-yl]-(4-methyl-2-[1,2,3]triazol-2-yl-phenyl)-methanone], the 50% inhibitory concentration (IC50) at CYP3A4 came to 17000 nM; on human orexin-2 receptor (setting [1]), 1090 nM; at human orexin-1 receptor (setting [2]), 12 nM.
As for `Cc1ccc(C(=O)N2C[C@@H](C)OC[C@H]2Cc2cc(-c3cccnn3)ccc2F)c(-n2nccn2)c1` [Example 165, [(2R,5R)-5-(2-Fluoro-5-pyridazin-3-yl-benzyl)-2-methyl-morpholin-4-yl]-(4-methyl-2-[1,2,3]triazol-2-yl-phenyl)-methanone], the concentration for half-maximal inhibition (IC50) on CYP3A4 turned out to be 20000 nM; at human orexin-2 receptor (setting [1]), 1300 nM; at human orexin-1 receptor (setting [2]), 14 nM.
Regarding `C[C@@H]1CN(C(=O)c2ccc(Cl)cc2-n2nccn2)[C@H](Cc2cccc(-n3nccn3)c2)CO1` [Example 185, (4-Chloro-2-[1,2,3]triazol-2-yl-phenyl)-[(2R,5R)-2-methyl-5-(3-[1,2,3]triazol-2-yl-benzyl)-morpholin-4-yl]-methanone], the IC50 came out at 20000 nM at CYP3A4, 39 nM on human orexin-2 receptor (setting [1]) and 2 nM on human orexin-1 receptor (setting [2]).
Regarding `Cc1ccc(-n2nccn2)c(C(=O)N2CCOC[C@H]2Cc2cc(-n3nccn3)ccc2C)c1` [Example 119, [(R)-3-(2-Methyl-5-[1,2,3]triazol-2-yl-benzyl)-morpholin-4-yl]-(5-methyl-2-[1,2,3]triazol-2-yl-phenyl)-methanone], the IC50 at CYP3A4 came out at 19000 nM; at human orexin-2 receptor (setting [1]), 593 nM; at human orexin-1 receptor (setting [2]), 6 nM.
Take `Cc1cccc(C(=O)N2CCOC[C@H]2Cc2cc(Cl)cc(-n3nccn3)c2)c1-n1nccn1` [Example 106, [(R)-3-(3-Chloro-5-[1,2,3]triazol-2-yl-benzyl)-morpholin-4-yl]-(3-methyl-2-[1,2,3]triazol-2-yl-phenyl)-methanone]: the results for the IC50 at CYP3A4, at human orexin-2 receptor (setting [1]) and at human orexin-1 receptor (setting [2]) were 14000 nM, 335 nM and 3 nM, respectively.
For `COc1ccc(C(=O)N2CCOC[C@H]2Cc2cc(-n3nccn3)ccc2F)c(-n2nccn2)c1` [Example 95, [(R)-3-(2-Fluoro-5-[1,2,3]triazol-2-yl-benzyl)-morpholin-4-yl]-(4-methoxy-2-[1,2,3]triazol-2-yl-phenyl)-methanone], in that order: 49000 nM, 1200 nM and 11 nM.
For the molecule `O=C(c1cccc(Cl)c1-n1nccn1)N1CCOC[C@H]1Cc1cccc(-n2nccn2)c1` [Example 107, (3-Chloro-2-[1,2,3]triazol-2-yl-phenyl)-[(R)-3-(3-[1,2,3]triazol-2-yl-benzyl)-morpholin-4-yl]-methanone], the IC50 turned out to be 22000 nM on CYP3A4, 435 nM at human orexin-2 receptor (setting [1]) and 5 nM on human orexin-1 receptor (setting [2]).
Consider `O=C(c1ccccc1-n1nccn1)N1CCCC[C@H]1Cc1cccc(-n2nccn2)c1` [Ref. 3], for which the half-inhibitory concentration (IC50) at CYP3A4 was 6100 nM; at human orexin-2 receptor (setting [1]), 12 nM; at human orexin-1 receptor (setting [2]), 1 nM.
Regarding `O=C(c1cc(Cl)ccc1-n1nccn1)N1CCOC[C@H]1Cc1cc(-n2nccn2)ccc1F` [Example 129, (5-Chloro-2-[1,2,3]triazol-2-yl-phenyl)-[(R)-3-(2-fluoro-5-[1,2,3]triazol-2-yl-benzyl)-morpholin-4-yl]-methanone], the figures for the IC50 at CYP3A4, on human orexin-2 receptor (setting [1]) and on human orexin-1 receptor (setting [2]) were 26000 nM, 188 nM and 12 nM, respectively.
For `O=C(c1ccccc1-n1nccn1)N1CCOC[C@H]1Cc1cc(F)cc(-n2nccn2)c1` [Example 145, [(R)-3-(3-Fluoro-5-[1,2,3]triazol-2-yl-benzyl)-morpholin-4-yl]-(2-[1,2,3]triazol-2-yl-phenyl)-methanone], in that order: 22000 nM, 1510 nM and 34 nM.
For `COc1ccc(C[C@@H]2COCCN2C(=O)c2ccccc2-n2nccn2)cc1-c1cccnn1` [Example 7, [(R)-3-(4-Methoxy-3-pyridazin-3-yl-benzyl)-morpholin-4-yl]-(2-[1,2,3]triazol-2-yl-phenyl)-methanone], in that order: greater than 50000 nM, 6090 nM and 26 nM.
For `C[C@@H]1CN(C(=O)c2cc(Cl)ccc2-n2nccn2)[C@H](Cc2cc(-c3ncccn3)ccc2F)CO1` [Example 152, (5-Chloro-2-[1,2,3]triazol-2-yl-phenyl)-[(2R,5R)-5-(2-fluoro-5-pyrimidin-2-yl-benzyl)-2-methyl-morpholin-4-yl]-methanone], the half-inhibitory concentration (IC50) on CYP3A4 came to 15000 nM; on human orexin-2 receptor (setting [1]), 129 nM; on human orexin-1 receptor (setting [2]) it was 4 nM.
For `COc1ccc(C[C@@H]2COCCN2C(=O)c2ccc(F)cc2-n2nccn2)cc1-c1ncon1` [Example 61, (4-Fluoro-2-[1,2,3]triazol-2-yl-phenyl)-[(R)-3-(4-methoxy-3-[1,2,4]oxadiazol-3-yl-benzyl)-morpholin-4-yl]-methanone], in that order: 42000 nM, 60 nM and 1 nM.
Take `O=C(c1cc(F)c(F)cc1-n1nccn1)N1CCOC[C@H]1Cc1cccc(-n2nccn2)c1` [Example 91, (4,5-Difluoro-2-[1,2,3]triazol-2-yl-phenyl)-[(R)-3-(3-[1,2,3]triazol-2-yl-benzyl)-morpholin-4-yl]-methanone]: the figures for the IC50 at CYP3A4, at human orexin-2 receptor (setting [1]) and on human orexin-1 receptor (setting [2]) were 17000 nM, 612 nM and 10 nM, respectively.
For the molecule `Cc1ccc(-n2nccn2)c(C(=O)N2CCOC[C@H]2Cc2cccc(-n3nccn3)c2)n1` [Example 52, (6-Methyl-3-[1,2,3]triazol-2-yl-pyridin-2-yl)-[(R)-3-(3-[1,2,3]triazol-2-yl-benzyl)-morpholin-4-yl]-methanone], the results for the concentration for half-maximal inhibition (IC50) at CYP3A4, at human orexin-2 receptor (setting [1]) and on human orexin-1 receptor (setting [2]) were greater than 50000 nM, 1630 nM and 43 nM, respectively.
For `O=C(c1ccccc1-n1nccn1)N1CCOC[C@H]1Cc1cccc(-c2ncon2)c1` [Example 1, [(R)-3-(3-[1,2,4]Oxadiazol-3-yl-benzyl)-morpholin-4-yl]-(2-[1,2,3]triazol-2-yl-phenyl)-methanone], in that order: greater than 50000 nM, 803 nM and 40 nM.
